According to patent US20250230193A1, “CYCLIC COMPOUND HAVING SELECTIVE KRAS INHIBITORY EFFECT ON HRAS AND NRAS” (CHUGAI SEIYAKU KABUSHIKI KAISHA, priority 2022, published 2025):
Where two headings read alike, the source gives them in different places.

Experiments:
[1] = system: human lung cancer strain NCI-H441
[2] = biological target: GDP-bound NRAS wild-type protein (Homo sapiens, UniProt P01111); experiment: Binding to NRAS by surface plasmon resonance (SPR), Single Cycle Kinetics; conditions: SPR; for NRAS/KRAS (ratio of KD value for GDP-bound NRAS wild-type protein to KD value for KRAS): KD ratio class
GDP-bound NRAS wild-type protein, sequence (P01111 whole entry): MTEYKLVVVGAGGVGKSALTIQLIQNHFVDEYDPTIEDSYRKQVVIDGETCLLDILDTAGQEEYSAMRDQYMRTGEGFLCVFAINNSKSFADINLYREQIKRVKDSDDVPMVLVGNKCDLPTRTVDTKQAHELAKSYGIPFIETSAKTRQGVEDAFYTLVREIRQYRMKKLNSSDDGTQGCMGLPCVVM

[3] = biological target: GDP-bound HRAS wild-type protein (Homo sapiens, UniProt P01112); experiment: Binding to HRAS by surface plasmon resonance (SPR), Single Cycle Kinetics; conditions: SPR; for HRAS/KRAS (ratio of KD value for GDP-bound HRAS wild-type protein to KD value for KRAS): KD ratio class
GDP-bound HRAS wild-type protein, sequence (P01112 whole entry): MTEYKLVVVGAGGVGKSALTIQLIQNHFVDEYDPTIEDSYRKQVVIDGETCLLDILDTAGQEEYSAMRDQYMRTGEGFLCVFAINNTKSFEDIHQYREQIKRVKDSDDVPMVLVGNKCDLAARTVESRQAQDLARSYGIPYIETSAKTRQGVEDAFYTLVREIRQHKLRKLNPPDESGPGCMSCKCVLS

[4] = biological target: GDP-bound KRAS wild-type protein (Homo sapiens, UniProt P01116); experiment: Binding to KRAS by surface plasmon resonance (SPR), Single Cycle Kinetics; conditions: GDP-bound KRAS wild-type protein
[5] = read-out: NCI-H441 IC50, NCI-H441 cells, 4 days, CellTiter-Glo
[6] = SPR Single Cycle Kinetics, 1:1 binding model

Compound	IC50 [1, 5] [nM]	Kd ([4]; SPR, Single Cycle Kinetics) [nM]	IC50 [1] [nM]	Kd [4, 6] [nM]	NRAS/KRAS (ratio of KD value for GDP-bound NRAS wild-type protein to KD value for KRAS) [2]	HRAS/KRAS (ratio of KD value for GDP-bound HRAS wild-type protein to KD value for KRAS) [3]	NRAS/KRAS (ratio of KD value with respect to GDP-bound NRAS wild-type protein to KD value with respect to KRAS) [2]	HRAS/KRAS (ratio of KD value with respect to GDP-bound HRAS wild-type protein to KD value with respect to KRAS) [3]	NRAS/KRAS (ratio of KD value with respect to NRAS to KD value with respect to KRAS) ([2]; KD ratio, GDP-bound NRAS wild-type vs GDP-bound KRAS wild-type)	HRAS/KRAS (ratio of KD value with respect to HRAS to KD value with respect to KRAS) ([3]; KD ratio, GDP-bound HRAS wild-type vs GDP-bound KRAS wild-type)
CC[C@H](C)[C@@H]1NC(=O)[C@H](CC(C)C)N(C)C(=O)C[C@@H](C(=O)N(C)C)N(C)C(=O)[C@H](C2CCCC2)N(C)C(=O)C2(CCCC2)NC(=O)[C@@H]2CCCN2C(=O)[C@H](CCc2ccc(C(F)(F)F)c(Cl)c2)NC(=O)CN(C)C(=O)[C@H](Cc2ccc(C(F)(F)F)cc2)N2C/C=C\COC[C@@H](C2=O)N(C)C(=O)CN(C)C1=O [PP0626]	–	–	158	7.1	–	–	C (A compound having a KD ratio of 0.1 or more and less than 3 is denoted as C)	C (A compound having a KD ratio of 0.1 or more and less than 3 is denoted as C)	–	–
CCCOC[C@H]1C(=O)N[C@@H]([C@@H](C)CC)C(=O)N(C)CC(=O)N(C)[C@H]2C/C=C\CCN(C2=O)[C@@H](Cc2ccc(C(F)(F)F)cc2)C(=O)N(C)CC(=O)N[C@@H](CCc2cc(F)c(C(F)(F)F)c(F)c2)C(=O)N2C[C@H](OCC)C[C@H]2C(=O)NC2(CC(C)(C)C2)C(=O)N(C)[C@@H](C2CCCC2)C(=O)N(C)[C@H](C(=O)N(C)C)CC(=O)N1C [PP1398]	2.3	0.032	–	–	A (a compound having 10 or more and less than 20 is denoted as A)	A (a compound having 10 or more and less than 20 is denoted as A)	–	–	–	–
CCO[C@@H]1C[C@H]2C(=O)NC3(CCC3)C(=O)N(C)[C@@H](C3CCCC3)C(=O)N(C)[C@H](C(=O)N(C)C)CC(=O)N(C)[C@@H](CC)C(=O)N[C@@H]([C@@H](C)CC)C(=O)N(C)CC(=O)N(C)[C@H]3CCCCCN(C3=O)[C@@H](Cc3ccc(F)cc3F)C(=O)N(C)CC(=O)N[C@@H](CCc3cc(F)c(C(F)(F)F)c(F)c3)C(=O)N2C1 [PP0906]	–	0.29	36.9	–	–	–	–	–	B (a compound having 3 or more and less than 10 is denoted as B)	B (a compound having 3 or more and less than 10 is denoted as B)
CC[C@H](C)C1NC(=O)[C@H](CC(C)C)N(C)C(=O)C[C@@H](C(=O)N(C)C)N(C)C(=O)[C@H](C2CCCC2)N(C)C(=O)C2(CCCC2)NC(=O)C2CCCN2C(=O)[C@@H](CCc2ccc(C(F)(F)F)c(Cl)c2)NC(=O)CN(C)C(=O)[C@@H](Cc2ccc(C(F)(F)F)cc2)N2CC/C=C\CCN(CC2=O)C(=O)CN(C)C1=O (some centres unmarked) [PP0619]	–	–	70.7	3.7	–	–	C (A compound having a KD ratio of 0.1 or more and less than 3 is denoted as C)	C (A compound having a KD ratio of 0.1 or more and less than 3 is denoted as C)	–	–
CCO[C@@H]1C[C@H]2C(=O)NC3(CCC3)C(=O)N(C)[C@@H](C3CCCC3)C(=O)N(C)[C@H](C(=O)N(C)C)CC(=O)N(C)[C@@H](CC3CC3)C(=O)N[C@@H]([C@@H](C)CC)C(=O)N(C)CC(=O)N(C)[C@H]3C/C=C\CCN(C3=O)[C@@H](CC3CCC(F)(F)CC3)C(=O)N(C)CC(=O)N[C@@H](CCc3cc(F)c(C(F)(F)F)c(F)c3)C(=O)N2C1 [PP1447]	28.9	0.12	–	–	A (a compound having 10 or more and less than 20 is denoted as A)	A (a compound having 10 or more and less than 20 is denoted as A)	–	–	–	–
CCO[C@@H]1C[C@H]2C(=O)NC3(CCC3)C(=O)N(C)[C@@H](C3CCCC3)C(=O)N(C)[C@H](C(=O)N(C)C)CC(=O)N(C)[C@@H](CC3CC3)C(=O)N[C@@H]([C@@H](C)CC)C(=O)N(C)CC(=O)N(C)[C@H]3C/C=C\CCN(C3=O)[C@@H](Cc3ccc(C(F)(F)F)cc3)C(=O)N(C)CC(=O)N[C@@H](CCc3ccc(C(F)(F)F)c(OC)c3)C(=O)N2C1 [PP1247]	6.4	0.046	–	–	A (a compound having 10 or more and less than 20 is denoted as A)	A (a compound having 10 or more and less than 20 is denoted as A)	–	–	–	–
CCO[C@@H]1C[C@H]2C(=O)NC3(CCC3)C(=O)N(C)[C@@H](C3CCCC3)C(=O)N(C)[C@H](C(=O)N(C)C)CC(=O)N(C)[C@@H](CC3CCCC3)C(=O)N[C@@H]([C@@H](C)CC)C(=O)N(C)CC(=O)N(C)[C@H]3C/C=C\CCN(C3=O)[C@@H](Cc3ccc(C(F)(F)F)cc3)C(=O)N(C)CC(=O)N[C@@H](CCc3ccc4sccc4c3)C(=O)N2C1 [PP1261]	76.8	0.44	–	–	A (a compound having 10 or more and less than 20 is denoted as A)	A (a compound having 10 or more and less than 20 is denoted as A)	–	–	–	–
CC[C@H](C)[C@@H]1NC(=O)[C@H](CC)N(C)C(=O)C[C@@H](C(=O)N(C)C)N(C)C(=O)[C@H](C2CCCC2)N(C)C(=O)C2(CCC2)NC(=O)[C@@H]2CC(F)(F)CN2C(=O)[C@H](CCc2cc(F)c(C(F)(F)F)c(F)c2)NC(=O)CN(C)C(=O)[C@H](CC2CCCCC2)N2CC/C=C\C[C@@H](C2=O)N(C)C(=O)CN(C)C1=O [PP1462]	27.5	0.12	–	–	A (a compound having 10 or more and less than 20 is denoted as A)	A (a compound having 10 or more and less than 20 is denoted as A)	–	–	–	–
CCO[C@@H]1C[C@H]2C(=O)NC3(CCC3)C(=O)N(C)[C@@H](C3CCCC3)C(=O)N(C)[C@H](C(=O)N(C)C)CC(=O)N(C)[C@@H](CC(C)C)C(=O)N[C@@H]([C@@H](C)CC)C(=O)N(C)CC(=O)N(C)[C@H]3C/C=C\CCN(C3=O)[C@@H](Cc3ccc(F)cc3)C(=O)N(C)CC(=O)N[C@@H](CCc3cc(F)c(C(F)(F)F)c(F)c3)C(=O)N2C1 [PP1488]	23.2	0.081	–	–	A (a compound having 10 or more and less than 20 is denoted as A)	B (a compound having 3 or more and less than 10 is denoted as B)	–	–	–	–

The remaining compounds from weak to strong by Kd ([4]; SPR, Single Cycle Kinetics), led by results:

IC50 [1, 5] [nM]	Kd ([4]; SPR, Single Cycle Kinetics) [nM]	IC50 [1] [nM]	Kd [4, 6] [nM]	Compound	NRAS/KRAS (ratio of KD value for GDP-bound NRAS wild-type protein to KD value for KRAS) [2]	HRAS/KRAS (ratio of KD value for GDP-bound HRAS wild-type protein to KD value for KRAS) [3]	NRAS/KRAS (ratio of KD value with respect to GDP-bound NRAS wild-type protein to KD value with respect to KRAS) [2]	HRAS/KRAS (ratio of KD value with respect to GDP-bound HRAS wild-type protein to KD value with respect to KRAS) [3]	NRAS/KRAS (ratio of KD value with respect to NRAS to KD value with respect to KRAS) ([2]; KD ratio, GDP-bound NRAS wild-type vs GDP-bound KRAS wild-type)	HRAS/KRAS (ratio of KD value with respect to HRAS to KD value with respect to KRAS) ([3]; KD ratio, GDP-bound HRAS wild-type vs GDP-bound KRAS wild-type)
36.6	0.76	–	–	CCO[C@@H]1C[C@H]2C(=O)NC3(CC(F)(F)C3)C(=O)N(C)[C@@H](C3CCCC3)C(=O)N(C)C(C(C)C)CC(=O)N(C)[C@@H](CC3CC3)C(=O)N[C@@H]([C@@H](C)CC)C(=O)N(C)CC(=O)N(C)[C@H]3C/C=C\CCN(C3=O)[C@@H](Cc3ccc(C(F)(F)F)cc3)C(=O)N(C)CC(=O)N[C@@H](CCc3cc(F)c(C(F)(F)F)c(F)c3)C(=O)N2C1 (some centres unmarked) [PP1598]	A (a compound having 10 or more and less than 20 is denoted as A)	A (a compound having 10 or more and less than 20 is denoted as A)	–	–	–	–
22.2	0.2	–	–	CCO[C@@H]1C[C@H]2C(=O)NC3(CCC3)C(=O)N(C)[C@@H](C3CCCC3)C(=O)N(C)[C@H](C(=O)N(C)C)CC(=O)N(C)[C@@H](CC3CC3)C(=O)N[C@@H]([C@@H](C)CC)C(=O)N(C)CC(=O)N(C)[C@H]3C/C=C\CCN(C3=O)[C@@H](Cc3ccc(C(F)(F)F)cc3)C(=O)N(C)CC(=O)N[C@@H](CCc3ccc(Cl)c(Cl)c3)C(=O)N2C1 [PP1253]	A (a compound having 10 or more and less than 20 is denoted as A)	A (a compound having 10 or more and less than 20 is denoted as A)	–	–	–	–
90	0.12	–	–	CCO[C@@H]1C[C@H]2C(=O)NC3(CCCC3)C(=O)N(C)[C@@H](C3CCCC3)C(=O)N(C)[C@H](C(=O)N(C)C)CC(=O)N(C)[C@@H](C)C(=O)N[C@@H]([C@@H](C)CC)C(=O)N(C)CC(=O)N(C)[C@H]3C/C=C\CCN(C3=O)[C@@H](CC3CCC(F)(F)CC3)C(=O)N(C)CC(=O)N[C@@H](CCc3cc(F)c(C(F)(F)F)c(F)c3)C(=O)N2C1 [PP1456]	A (a compound having 10 or more and less than 20 is denoted as A)	A (a compound having 10 or more and less than 20 is denoted as A)	–	–	–	–
13.7	0.099	–	–	CC[C@H](C)[C@@H]1NC(=O)[C@H](CC2CC2)N(C)C(=O)C[C@@H](C(=O)N(C)C)N(C)C(=O)[C@H](C2CCCC2)N(C)C(=O)C2(CCCC2)NC(=O)[C@@H]2C[C@H](C)CN2C(=O)[C@H](CCc2cc(F)c(C(F)(F)F)c(F)c2)NC(=O)CN(C)C(=O)[C@H](Cc2ccc(C(F)(F)F)cc2)N2CC/C=C\C[C@@H](C2=O)N(C)C(=O)CN(C)C1=O [PP1511]	AA (a compound having 20 or more is denoted as AA)	A (a compound having 10 or more and less than 20 is denoted as A)	–	–	–	–
3.7	0.073	–	–	CCCC[C@H]1C(=O)N[C@@H]([C@@H](C)CC)C(=O)N(C)CC(=O)N(C)[C@H]2C/C=C\CCN(C2=O)[C@@H](Cc2ccc(C(F)(F)F)cc2)C(=O)N(C)CC(=O)N[C@@H](CCc2cc(F)c(C(F)(F)F)c(F)c2)C(=O)N2C[C@H](OCC)C[C@H]2C(=O)NC2(CCCC2)C(=O)N(C)[C@@H](C2CCCC2)C(=O)N(C)[C@H](C(=O)N(C)C)CC(=O)N1C [PP1397]	A (a compound having 10 or more and less than 20 is denoted as A)	A (a compound having 10 or more and less than 20 is denoted as A)	–	–	–	–
